In US12655124B2, “Heterocyclic compounds as modulators of stimulator of interferon genes (STING)” (RYVU THERAPEUTICS S.A., priority 2019, dated 2026):
Where a name gives a salt, the structure may show the parent alone.

molecular target: human STING (Homo sapiens, UniProt Q86WV6); assay: Fluorescence Thermal Shift assay (hSTING FTS binding assay); conditions: ΔTm, STING 0.1 mg/mL, SyproOrange, 25 to 99° C.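 Also: STING preincubated with compound for 20 min in HEPES NaCl buffer pH 7.5.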
Procedure: Fluorescence Thermal Shift Assay Compounds of the present invention were tested for binding to human STING in Fluorescence Thermal Shift assay. […] Final STING concentration was 0.1 mg/mL. Thermal unfolding was performed in Real-Time PCR QuantStudio 6 Flex System (Applied Biosystems), from 25 to 99° C., with continuous ramp mode and ramp rate 0.033° C./s. The data were analyzed using Protein Thermal Shift Software (ThermoFisher).

human STING, sequence (Q86WV6 whole entry H232R): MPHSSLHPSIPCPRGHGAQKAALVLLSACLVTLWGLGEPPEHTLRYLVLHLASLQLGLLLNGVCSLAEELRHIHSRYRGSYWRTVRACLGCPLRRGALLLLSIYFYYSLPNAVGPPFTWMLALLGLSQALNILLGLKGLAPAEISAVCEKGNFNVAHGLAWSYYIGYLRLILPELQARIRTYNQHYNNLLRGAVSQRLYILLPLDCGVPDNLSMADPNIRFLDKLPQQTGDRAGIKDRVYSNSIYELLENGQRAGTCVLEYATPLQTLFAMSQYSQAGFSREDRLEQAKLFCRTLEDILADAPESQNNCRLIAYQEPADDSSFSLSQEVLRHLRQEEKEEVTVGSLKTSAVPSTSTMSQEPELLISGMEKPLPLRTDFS

| hSTING FTS binding assay (ΔT ° C.) | SMILES |
| --- | --- |
| +++ (ΔTm≥20° C.) | Cc1ccc(N2CCC[C@H](N(Cc3ccnc(C)c3)Cc3cn(C4CC4)c4cc(N5CCC[C@@H](O)C5)c(F)cc4c3=O)C2)cn1.Cl [Example 28, 1-cyclopropyl-6-fluoro-7-[(3R)-3-hydroxypiperidin-1-yl]-3-({[(3S)-1-(6-methylpyridin-3-yl)piperidin-3-yl][(2-methylpyridin-4-yl)methyl]amino}methyl)-1,4-dihydroquinolin-4-one Hydrochloride] |
| +++ (ΔTm≥20° C.) | Cc1ccc(N2CCC[C@H](N(Cc3ccnc(C)c3)Cc3cn(C4CC4)c4cc(N5CC[C@H](CN)C5)c(F)cc4c3=O)C2)cn1.Cl [Example 15, 7-[(3R)-3-(Aminomethyl)pyrrolidin-1-yl]-1-cyclopropyl-6-fluoro-3-({[(3S)-1-(6-methylpyridin-3-yl)piperidin-3-yl][(2-methylpyridin-4-yl)methyl]amino}methyl)-1,4-dihydroquinolin-4-one Hydrochloride] |
| +++ (ΔTm≥20° C.) | Cc1cc(CN(Cc2cn(C3COC3)c3ccccc3c2=O)[C@H]2CCCN(c3ccc(N)nc3)C2)ccn1 [Example 35, 3-({[(3S)-1-(6-aminopyridin-3-yl)piperidin-3-yl][(2-methylpyridin-4-yl)methyl]amino}methyl)-1-(oxetan-3-yl)-1,4-dihydroquinolin-4-one] |
| +++ (ΔTm≥20° C.) | Cc1cc(CN(Cc2cn(C)c3ccccc3c2=O)[C@H]2CCCN(c3ccc(N)nc3)C2)ccn1 [Example 2, 3-({[(3S)-1-(6-Aminopyridin-3-yl)piperidin-3-yl][(2-methylpyridin-4-yl)methyl]amino}methyl)-1-methyl-1,4-dihydroquinolin-4-one] |
| +++ (ΔTm≥20° C.) | Cc1ccc(N2CCC[C@H](N(Cc3ccnc(C)c3)Cc3cn(C4CC4)c4cc(N5CCC(N)C(F)(F)C5)c(F)cc4c3=O)C2)cn1 (stereo partly drawn) [Example 26, 7-(4-amino-3,3-difluoropiperidin-1-yl)-1-cyclopropyl-6-fluoro-3-({[(3S)-1-(6-methylpyridin-3-yl)piperidin-3-yl][(2-methylpyridin-4-yl)methyl]amino}methyl)-1,4-dihydroquinolin-4-one] |
| +++ (ΔTm≥20° C.) | Cc1ccc(N2CCC[C@H](N(Cc3ccnc(C)c3)Cc3cn(C4CC4)c4cc(NCCN(C)C)c(F)cc4c3=O)C2)cn1 [Example 9, 1-Cyclopropyl-7-{[2-(dimethylamino)ethyl]amino}-6-fluoro-3-({[(3S)-1-(6-methylpyridin-3-yl)piperidin-3-yl][(2-methylpyridin-4-yl)methyl]amino}methyl)-1,4-dihydroquinolin-4-one] |
| +++ (ΔTm≥20° C.) | CN[C@@H]1CCN(c2cc3c(cc2F)c(=O)c(CN(Cc2ccnc(C)c2)[C@H]2CCCN(c4ccc(C)nc4)C2)cn3C2CC2)C1.Cl [Example 55, 1-Cyclopropyl-6-fluoro-7-[(3R)-3-(methylamino)pyrrolidin-1-yl]-3-({[(3S)-1-(6-methylpyridin-3-yl)piperidin-3-yl][(2-methylpyridin-4-yl)methyl]amino}methyl)-1,4-dihydroquinolin-4-one Hydrochloride] |
| + (ΔTm≤10° C.) | Cc1cc(CN(Cc2cn(C)c3ccccc3c2=O)[C@H]2CCCN(c3ccc(CN)nc3)C2)ccn1.Cl [Example 3, 3-({[(3S)-1-[6-(Aminomethyl)pyridin-3-yl]piperidin-3-yl][(2-methylpyridin-4-yl)methyl]amino}methyl)-1-methyl-1,4-dihydroquinolin-4-one Hydrochloride] |
| +++ (ΔTm≥20° C.) | Cc1cc(CN(Cc2cn(C(C)C)c3ccccc3c2=O)[C@H]2CCCN(c3ccc(N)nc3)C2)ccn1.Cl [Example 34, 3-({[(3S)-1-(6-aminopyridin-3-yl)piperidin-3-yl][(2-methylpyridin-4-yl)methyl]amino}methyl)-1-(propan-2-yl)-1,4-dihydroquinolin-4-one Hydrochloride] |
| +++ (ΔTm≥20° C.) | Cc1ccc(N2CCC[C@H](N(Cc3ccnc(C)c3)Cc3cn(C4CC4)c4cc(N5CCC(O)CC5)c(F)cc4c3=O)C2)cn1.Cl [Example 32, 1-cyclopropyl-6-fluoro-7-(4-hydroxypiperidin-1-yl)-3-({[(3S)-1-(6-methylpyridin-3-yl)piperidin-3-yl][(2-methylpyridin-4-yl)methyl]amino}methyl)-1,4-dihydroquinolin-4-one Hydrochloride] |
| +++ (ΔTm≥20° C.) | CN[C@H]1CCN(c2cc3c(cc2F)c(=O)c(CN(Cc2ccnc(C)c2)[C@H]2CCCN(c4ccc(C)nc4)C2)cn3C2CC2)C1.Cl [Example 58, 1-Cyclopropyl-6-fluoro-7-[(3S)-3-(methylamino)pyrrolidin-1-yl]-3-({[(3S)-1-(6-methylpyridin-3-yl)piperidin-3-yl][(2-methylpyridin-4-yl)methyl]amino}methyl)-1,4-dihydroquinolin-4-one Hydrochloride] |
| + (ΔTm≤10° C.) | Cc1cc(CN(Cc2cn(C(C)C)c3cc(N4CC[C@@H](O)C4)ccc3c2=O)[C@H]2CCCN(c3ccnnc3)C2)ccn1 [Example 49, 7-[(3R)-3-hydroxypyrrolidin-1-yl]-3-({[(2-methylpyridin-4-yl)methyl][(3S)-1-(pyridazin-4-yl)piperidin-3-yl]amino}methyl)-1-(propan-2-yl)-1,4-dihydroquinolin-4-one] |
| +++ (ΔTm≥20° C.) | Cc1ccc(N2CCC[C@H](N(Cc3ccnc(C)c3)Cc3cn(C4CC4)c4cc(N5CC[C@H](N)C5)c(F)cc4c3=O)C2)cn1.Cl [Example 13, 7-[(3S)-3-Aminopyrrolidin-1-yl]-1-cyclopropyl-6-fluoro-3-({[(3S)-1-(6-methylpyridin-3-yl)piperidin-3-yl][(2-methylpyridin-4-yl)methyl]amino}methyl)-1,4-dihydroquinolin-4-one Hydrochloride] |
| +++ (ΔTm≥20° C.) | Cc1cc(CN(Cc2cn(C)c3cc(Br)ccc3c2=O)[C@H]2CCCN(c3ccc(N)nc3)C2)ccn1.Cl [Example 29, 3-({[(3S)-1-(6-aminopyridin-3-yl)piperidin-3-yl][(2-methylpyridin-4-yl)methyl]amino}methyl)-7-bromo-1-methyl-1,4-dihydroquinolin-4-one Hydrochloride] |
| +++ (ΔTm≥20° C.) | COCCn1cc(CN(Cc2ccnc(C)c2)[C@H]2CCCN(c3ccc(N)nc3)C2)c(=O)c2ccccc21.Cl [Example 21, 3-({[(3S)-1-(6-aminopyridin-3-yl)piperidin-3-yl][(2-methylpyridin-4-yl)methyl]amino}methyl)-1-(2-methoxyethyl)-1,4-dihydroquinolin-4-one Hydrochloride] |
| +++ (ΔTm≥20° C.) | Cc1ccc(N2CCC[C@H](N(Cc3ccnc(C)c3)Cc3cn(C4CC4)c4cc(N5CC[C@@H](N)C(F)(F)C5)c(F)cc4c3=O)C2)cn1.Cl (single isomer, unassigned) [Example 56] |
| +++ (ΔTm≥20° C.) | Cc1ccc(N2CCC[C@H](N(Cc3ccnc(C)c3)Cc3cn(C4CC4)c4cc(N5CCC[C@H](N)C5)c(F)cc4c3=O)C2)cn1 [Example 16, 7-[(3S)-3-Aminopiperidin-1-yl]-1-cyclopropyl-6-fluoro-3-({[(3S)-1-(6-methylpyridin-3-yl)piperidin-3-yl][(2-methylpyridin-4-yl)methyl]amino}methyl)-1,4-dihydroquinolin-4-one] |
| +++ (ΔTm≥20° C.) | Cc1ccc(N2CCC[C@H](N(Cc3ccnc(C)c3)Cc3cn(C4CC4)c4cc(N5CCC(C(=O)O)CC5)c(F)cc4c3=O)C2)cn1 [Example 67, 1-[1-cyclopropyl-6-fluoro-3-({[(3S)-1-(6-methylpyridin-3-yl)piperidin-3-yl][(2-methylpyridin-4-yl)methyl]amino}methyl)-4-oxo-1,4-dihydroquinolin-7-yl]piperidine-4-carboxylic Acid] |
| ++ (10<ΔTm<20° C.) | Cc1ccc(N2CCC[C@H](N(Cc3ccnc(C)c3)Cc3cn(C)c4cc(N5CC[C@@H](O)C5)ccc4c3=O)C2)cn1 [Example 23, 7-[(3R)-3-hydroxypyrrolidin-1-yl]-1-methyl-3-({[(3S)-1-(6-methylpyridin-3-yl)piperidin-3-yl][(2-methylpyridin-4-yl)methyl]amino}methyl)-1,4-dihydroquinolin-4-one] |
| +++ (ΔTm≥20° C.) | Cc1ccc(N2CCC[C@H](N(Cc3ccnc(C)c3)Cc3cn(C4CC4)c4cc(N5CCC[C@@H](N)C5)c(F)cc4c3=O)C2)cn1 [Example 17, 7-[(3R)-3-Aminopiperidin-1-yl]-1-cyclopropyl-6-fluoro-3-({[(3S)-1-(6-methylpyridin-3-yl)piperidin-3-yl][(2-methylpyridin-4-yl)methyl]amino}methyl)-1,4-dihydroquinolin-4-one] |
| +++ (ΔTm≥20° C.) | Cc1cc(CN(Cc2cn(C3CC3)c3cc(N4CC[C@@H](O)C4)c(F)cc3c2=O)[C@H]2CCCN(c3cccnc3)C2)ccn1 [Example 78, 1-cyclopropyl-6-fluoro-7-[(3R)-3-hydroxypyrrolidin-1-yl]-3-({[(2-methylpyridin-4-yl)methyl][(3S)-1-(pyridin-3-yl)piperidin-3-yl]amino}methyl)-1,4-dihydroquinolin-4-one] |

| SMILES | hSTING FTS binding assay (ΔT ° C.) |
| --- | --- |
| Cc1ccc(N2CCC[C@H](N(Cc3ccnc(C)c3)Cc3cn(C4CC4)c4cc(NCCN)c(F)cc4c3=O)C2)cn1 [Example 8, 7-[(2-Aminoethyl)amino]-1-cyclopropyl-6-fluoro-3-({[(3S)-1-(6-methylpyridin-3-yl)piperidin-3-yl][(2-methylpyridin-4-yl)methyl]amino}methyl)-1,4-dihydroquinolin-4-one] | +++ (ΔTm≥20° C.) |
| Cc1ccc(N2CCC[C@H](N(Cc3ccnc(N)c3)Cc3cn(C4CC4)c4cc(F)c(F)cc4c3=O)C2)cn1 [Example 5, 3-({[(2-Aminopyridin-4-yl)methyl][(3S)-1-(6-methylpyridin-3-yl)piperidin-3-yl]amino}methyl)-1-cyclopropyl-6,7-difluoro-1,4-dihydroquinolin-4-one Hydrochloride] | +++ (ΔTm≥20° C.) |
